{
  "source": "patent US20110244050A1",
  "about": "“PULSED-RELEASE SILDENAFIL COMPOSITION AND METHOD FOR PREPARING SAID COMPOSITION” (SIEGFRIED RHEIN S.A. DE C.V., priority 2008, published 2011)",
  "origin": "cited, not measured here",
  "key": {"[1]": {"settings": "in vivo"}},
  "data": [
    {"smiles": "CCCc1nn(C)c2c(=O)[nH]c(-c3cc(S(=O)(=O)N4CCN(C)CC4)ccc3OCC)nc12", "note": "[sildenafil]", "values": [
      {"measurement": "plasmatic elimination half-life", "setting": "[1]", "value": "about 4 hours"},
      {"measurement": "solubility in acidic media", "setting": "acidic media, like in the stomach", "value": "adequate"},
      {"measurement": "solubility in alkaline media", "setting": "alkaline media, like that found in the intestine", "value": "decreases markedly"}
    ]}
  ]
}
